{"source": "patent US9250240B2", "about": "“Immunoreactive Ehrlichia p120/p140 epitopes and uses thereof” (Research Development Foundation, priority 2009, dated 2016)", "key": {"[1]": {"system": "E. chaffeensis antibodies in HME patient sera", "assay": "ELISA evaluation of E. chaffeensis immunodeterminants for serologic diagnosis of HME", "assay_type": "binding, human", "protocol": "ELISA. For epitope mapping, an ELISA was performed as previously described (Luo et al., 2009). For serologic diagnosis evaluation, an Immobilizer amino plate (Nunc, Roskilde, Denmark) was used to increase the signal-to-noise ratio. Immobilizer amino plates were coated with synthetic peptides or recombinant proteins (0.5 μg/well; 50 μl) suspended in 100 mM sodium carbonate buffer (pH 9.6) and incubated with gentle agitation at room temperature for 1 to 2 h or overnight at 4° C. The wells were washed four times with 300 μl phosphatebuffered saline containing 0.05% (vol/vol) Tween 20 (PBST; pH 7.2) by a plate washer (SkanWasher 400; Molecular Devices, Sunnyvale, Calif.). Dog or human sera diluted (1:100 or 1:200, respectively) in PBST were added to each well (50 μl) and incubated at room temperature for 1 h. The plates were washed again, and 50 μl alkaline phosphatase-labeled goat anti-dog or -human IgG(H+L) secondary antibody (Kirkegaard & Perry Laboratories, Gaithersburg, Md.) diluted (1:5,000) in PBST was added and incubated at room temperature for 1 h. After the addition of substrate (BluePhos; Kirkegaard & Perry Laboratories), plates were incubated in the dark for 30 min, color development was determined on a microplate reader (VersaMax; Molecular Devices, Sunnyvale, Calif.) at A650, and data were analyzed by SoftMax Pro version 4.0 (Molecular Devices). Optical density (OD) readings represent the mean OD value for three wells (±standard deviations) after subtracting the OD value of the negative control wells. All sera negative for E. chaffeensis by IFA had readings of <0.05 OD unit; therefore, a positive sample threshold was set at >0.1 OD unit. In addition, a reading of 0.1 to 0.5 OD unit was considered a weak positive, and a reading of >0.5 OD unit was considered a strong positive. IFA. The anti-E. chaffeensis antibody status in HME patient sera was determined as described previously (McBride et al., 2003). […] The statistical differences between experimental groups were assessed with the two-tailed Student t test, and significance was indicated by a P value of <0.05. […]"}, "[2]": {"system": "antibodies in anti-E. canis dog sera", "assay": "ELISA of overlapping synthetic peptides spanning the E. canis p140 repeat unit", "assay_type": "binding", "settings": "four anti-E. canis sera from naturally infected dogs (nos. 2160, 6, 10, 18)", "protocol": "ELISA. Enzyme-linked immunosorbent assay (ELISA) plates (MaxiSorp; Nunc, Roskilde, Denmark) were coated (0.5 μg/well; 50 μl) with recombinant proteins or synthetic peptides suspended in phosphate-buffered saline (pH 7.4). Proteins and peptides were absorbed for 1 h at room temperature with gentle agitation, and subsequently washed thrice with 200 μl Tris-buffered saline containing 0.2% Tween 20 (TBST). Plates were blocked with 100 μl 10% equine serum (Sigma) in TBST for 1 h at room temperature with agitation, and washed. Convalescent dog or human sera diluted (1:100 or 1:200, respectively) in 10% equine serum-TBST were added to each well (50 μl) and incubated at room temperature for 1 h with gentle agitation. […] The plates were incubated in the dark for 30 min with agitation, and color development was determined on a microplate reader (VersaMax; Molecular Devices, Sunnyvale, Calif.) at A650 and data analyzed by SoftmaxPro v4.0 (Molecular Devices). Optical density (OD) readings represent the mean OD for three wells (±standard deviations) after subtracting the OD value of the buffer-only wells. A reading >0.2 OD unit above the negative control absorbance was considered positive for all samples. In addition, a reading 0.2-0.5 OD unit above the control absorbance was considered a weak positive, and a reading >0.5 OD unit above the control absorbance was considered a strong positive. […]"}, "[3]": {"settings": "31 HME patient sera (IFA titers 64 to 8192), positive = 0.1 OD unit above negative control"}}, "note": "No end group written: not given here."}
{"substance": "TRP32 peptides: equal (w:w) mixture of TRP32-R3 and TRP32-R4 peptides (chain 1 SDLHGSFSVELFDPFKEAVQLGNDLQQSSD; chain 2 SDSHEPSHLELPSLSEEVIQLESDLQQSSN; not fully specified)", "values": [{"measurement": "% of patients with detectable antibodies", "setting": "[1]; [3]", "value": 87.1, "unit": "%"}, {"measurement": "No. of patients with detectable antibodies", "setting": "[1]; [3]", "value": 27}, {"measurement": "specificity for diagnosing HME", "setting": "[1]; as worded in the summary", "value": 87.1, "unit": "%"}]}
{"substance": "p140R-3: 11-mer overlapping synthetic peptide of the E. canis p140 repeat unit (SKEESTPEVKA)", "values": [{"measurement": "Immunoreactivity by ELISA", "setting": "[2]", "value": "virtually nonreactive"}]}
